Columns and labels:
[1] = system: common broomrape (Orobanche minor) seeds; experiment: Bioassay using common broomrape seeds (germination); type: cell-based; conditions: FIG. 5
Source text: The seeds of the genus Orobanche and genus Striga plants, which are root-parasitic weeds, have the property to germinate in response to strigolactones released from the roots of agricultural plants which serve as hosts. These root-parasitic weeds are causing serious damage to crop production worldwide. This poses a hindrance to the external application of strigolactone as an agent for promoting arbuscular mycorrhizal fungus colonization.
Effect of gentiopicroside (GPS) on the germination of common broomrape (Orobanche minor), a parasitic weed of the genus Orobanche, was investigated. Experiments were performed according to the following experimental procedures.
(1) Common broomrape seeds were placed in a nylon mesh that had been shaped into a pouch (2 cm×2 cm×2 cm) by a sealer, and the opening of the pouch was closed.
(2) The seeds, together with the pouch, were placed in a 1% sodium hypochlorite aqueous solution to sterilize the surface for 20 minutes, and then washed 3 times with sterilized water.
(3) The pouch containing the seeds was placed on a filter paper dampened with sterilized water, and allowed to absorb water for 10 days at 25° C. in the dark.
(4) 6 mm paper discs contained in a 96-well plate were moistened by adding 15 μL distilled water dropwise.
(5) A new paper disc was placed on the paper disc of (4) above, and 20 μL of the test solution was added dropwise. Distilled water was used as a negative control (Mock) and 1 μM strigolactone (GR24) as a positive control. For the solvent for GPS, methanol was chosen due to its volatility.
(6) For treating the common broomrape seeds with both GR24 and GPS, one reagent was first added dropwise, and after complete evaporation of the solvent, the other reagent was then added.
(7) After the discs were left for 5 minutes to remove the solvent by evaporation, the common broomrape seeds of (3) above, which had been transferred to distilled water, were added together with the water as 5 μL drops.
(8) After 5 days of culturing at 25° C. in the dark, the germination rates of the common broomrape were measured.

Rhizophagus clarus HR1 = experiment: Hyphal branching of a different AM fungus (as in Example 1); type: cell-based; conditions: FIG. 6
Protocol: Essentially the same experiments as described in Example 1 were carried out, except that a different arbuscular mycorrhizal fungus, Rhizophagus clarus HR1, was used. […] The compositions of the present disclosure can increase hyphal branching of diverse arbuscular mycorrhizal fungi included in the order Glomerales besides those exemplified here.

[2] = system: Arbuscular mycorrhizal fungus Rhizophagus irregularis DAOM197198; experiment: Hyphal branching of AM fungus cultured on gel media; type: cell-based; conditions: for hyphal branching activity compared with positive control GR24: GR24 at 100 nM, FIG. 1 and FIG. 2; for activity for promoting hyphal branching (hyphal branch number per spore): concentration range tested 1 to 100 nM, 7-10 days; for activity for promoting hyphal branching (hyphal branch number per spore) / hyphal branch numbers compared to the negative control: Steel test; for hyphal branch numbers compared to the negative control: FIG. 2
Protocol: • Arbuscular mycorrhizal fungus Rhizophagus irregularis DAOM197198 (Premier Tech Biotechnologies)
The spores of the AM fungi were separated and cultured on gels according to the conventional procedures outlined below.
1. In a 50 mL centrifuge tube, Gastrografin aqueous solutions having different densities were gently layered in the order of 50% (10 mL), 32% (5 mL), 16% (5 mL), and 8% (5 mL), and finally 5 mL of a spore suspension of R. irregularis (hereinafter called the AM fungus) was loaded, and centrifugation was performed at 500 g for 10 minutes.
2. The spores separated in the density gradient from the above were collected on a cell strainer and washed with sterilized water 3 times.
3. The spores were suspended in sterilized water at 4000 spores/mL.
4. A 4 μL drop (about 8 spores) each of the spore suspension diluted to 2000 spores/mL was put in the center portion of the M medium (New Phytol. 108:211-218), which had been dispensed in a 24-well plate at 350 μL each.
5. After it was left for 5 minutes to allow excess moisture to evaporate, 200 μL each of 0.3% Phytagel (3 mM MgSO4) at a temperature of about 50° C. was gently poured over the spores. Three to four wells were prepared per treatment group.
6. They were cultured in the dark for 5 days at 25° C. to let the spores germinate in advance.
1. rac-GR24 (hereinafter denoted as GR24), a synthetic strigolactone known to have a hyphal branching activity for the AM fungi, was used as a positive control. From the GR24 stored in acetone, the solvent was removed in vacuo, and GR24 was resuspended in distilled water and sterilized with a 0.45 μm filter.
2. For the other test substances, dry solids were dissolved in distilled water and filter-sterilized as above.
3. 200 μL each of the test solutions was added dropwise onto the Phytagel media comprising the germinated spores obtained in (2) above. The AM fungi were treated using sterilized water as a negative (Mock) control and with GR24 at a final concentration of 100 nM as a positive control.
4. Culturing was performed in the dark for 7-10 days at 25° C.
5. Hyphal branching numbers were measured under a stereomicroscope.
The hyphae that extended and branched directly from the hyphal stem had complex structures and branched well irrespective of the treatment conditions, and therefore they were excluded from the measurements of hyphal branching numbers. […]

[3] = system: AM fungi colonizing chive (Allium schoenoprasum) root; experiment: AM fungal colonization of host plant root in plant box: chive; type: in vivo
Protocol: (§1) To confirm that the identified active compounds not only promote hyphal branching of the AM fungi but also actually lead to increases of colonization and symbiosis with diverse plants, tests were carried out using lisianthus (Eustoma grandiflorum cv. Pink Thumb), tomato (Solanum lycopersicum L. cv. Sugar Lump), and chive (Allium schoenoprasum) as host plants.
(§2) Culturing of the host plants and AM fungal colonization and treatments with the active compounds were performed according to the following procedures. […]
(§3) Colonization rates of the AM fungi were measured according to the following procedures. […]
(§4) (4) Using a light microscope having an ocular lens fitted with an ocular micrometer, the stage was moved perpendicular to the root (in the Y-axis direction), and when the crosshair of the ocular micrometer touched the root, presence or absence of AM fungal hyphae in the root within the field of view was examined. The rate of hyphal invasion, i.e. colonization rate, as a total was calculated according to the following formula. […]
The rate of arbuscule formation was calculated according to the above formula by replacing the numerator in parentheses, on the right-hand side of the equation, with “number of fields of view in which arbuscules were seen”. […]

[4] = system: AM fungi colonizing tomato (Solanum lycopersicum L. cv. Sugar Lump) root; experiment: AM fungal colonization of host plant root in plant box: tomato; type: in vivo; conditions: 4 weeks, FIG. 4b
Protocol: as §1, §2, §3, §4
(§5) The rate of arbuscule formation was calculated according to the above formula by replacing the numerator in parentheses, on the right-hand side of the equation, with “number of fields of view in which arbuscules were seen”.

[5] = system: AM fungi colonizing lisianthus (Eustoma grandiflorum cv. Pink Thumb) root; experiment: AM fungal colonization of host plant root in plant box: lisianthus; type: in vivo; set-up: AM fungal colonization rates compared with positive control gibberellin (GA): dose or concentration left out as unconfirmed; conditions: for root colonization events compared to the mock treatment: 4 weeks
Protocol: as §1
Culturing of the host plants and AM fungal colonization and treatments with the active compounds were performed according to the following procedures.
(1) Plant box was assembled in 3 tiers: the top tier served as a lid having openings for ventilation, the middle tier was a box to which the culture soil (300 mL river sand) had been added, and the bottom tier was an empty box.
(2) The plant box of (1) above was sterilized by autoclaving (121° C., 20 minutes).
(3) To the culture soil of the middle box, 1000 spores of the AM fungi and 50 mL of the Hoagland hydroponic solution at a 1/10 concentration were added, and stirred with forceps. The active compounds such as GPS were added to the Hoagland hydroponic solution to treat the AM fungi and host plants.
(4) In order to prevent drying of the culture soil, 50 mL of the Hoagland hydroponic solution at a 1/10 concentration was also added to the bottom box. A twisted piece of KimWipe was placed through a hole provided at the bottom of the middle box, with the lower tip of the Kim Wipe soaked into the solution in the bottom box, and therefore the culture soil was maintained without becoming dry.
(5) Six seedlings of each host plant were planted per plant box, and cultured for 4 weeks in a culture chamber set at 24° C. and 14 hour light cycle.
(6) After completing the culturing period above, the root of each host plant was sampled and preserved in an FAA fixative solution.
Colonization rates of the AM fungi were measured according to the following procedures.
(1) The root fixed in said fixative solution was cut into 1 cm fragments and immersed in a 10% KOH aqueous solution, and heated at 90° C. for 15 minutes. […]
as §4, §5

Compound	hyphal branching (Rhizophagus clarus HR1)	hyphal branching activity compared with positive control GR24 [2]	activity for promoting hyphal branching (hyphal branch number per spore) ([2]; FIG. 1)	hyphal branch numbers compared to the negative control [2]	also measured
CC1=C[C@H](O/C=C2/C(=O)O[C@@H]3c4ccccc4C[C@H]23)OC1=O (racemic) [GR24, rac-GR24, reference compound]					germination rate of the common broomrape seeds ([1]; 1 μM GR24, 5 days at 25° C. in the dark): ~100%; hyphal branching (Rhizophagus clarus HR1; positive control, 100 nM): significant increases; hyphal branch number per spore compared to the Mock treatment ([2]; positive control, 100 nM, 7-10 days at 25° C. in the dark, FIG. 1): significant increase
C=C[C@@H]1C2=CCOC(=O)C2=CO[C@H]1O[C@@H]1O[C@H](CO)[C@@H](O)[C@H](O)[C@H]1O [GPS, Gentiopicroside]	significant increases	comparable to or greater than that of GR24	significantly high activities for promoting hyphal branching		germination of the common broomrape seeds ([1]; 1 to 1000 nM GPS alone, 5 days at 25° C. in the dark): did not germinate at all; germination rates of the common broomrape seeds ([1]; GPS treatment in the concurrent presence of GR24 treatment): ~100%; AM fungal colonization rate ([3]; 1 nM (lowest concentration tested), Dunnett's test): statistically significant increase; GPS concentration giving maximum average colonization rate of the AM fungi ([3]; 4 weeks, FIG. 4c): 10 nM; GPS concentration giving maximum average colonization rate of the AM fungi [4]: 100 nM; root colonization events compared to the mock treatment ([5]; 10 nM, Dunnett's test): statistically significant increase; root colonization events compared to the mock treatment ([5]; GPS treatments, FIG. 4a): increasing trend; outside-of-root hyphae of the AM fungi in the rhizosphere ([5]; GPS treatments, FIG. 4a, left): vigorously branching; AM fungal colonization rates compared with positive control gibberellin (GA) ([5]; positive control gibberellin): overall lower
COC(=O)C1=CO[C@@H](O[C@@H]2O[C@H](CO)[C@@H](O)[C@H](O)[C@H]2O)[C@@H]2C(CO)=CC[C@H]12 [Geniposide]		lower activities compared to GR24 and Loganin		increased the hyphal branch numbers significantly	
COC(=O)C1=CO[C@@H](O[C@@H]2O[C@H](CO)[C@@H](O)[C@H](O)[C@H]2O)[C@@H]2[C@@H](C)[C@@H](O)C[C@H]12 [Loganin]		comparable to those of Gentiopicroside and Swertiamarin and the positive control GR24		had the activity for the AM fungi to promote hyphal branching	
C=C[C@H]1[C@H](O[C@@H]2O[C@H](CO)[C@@H](O)[C@H](O)[C@H]2O)OC=C2C(=O)OCC[C@]21O [SWM, Swertiamarin]	significant increases	comparable to or greater than that of GR24	significantly high activities for promoting hyphal branching		
Oleuropein		lower activities compared to GR24 and Loganin		increased the hyphal branch numbers significantly	
